According to patent publication US20180021373A1, “Ruthenium and Indium Binding to Gastrins” (EUPHARMA PTY LTD, priority 2015, published 2018):
Where two headings read alike, the source gives them in different places.

Assays:
[1] = biological target: T1, progastrin (Homo sapiens, UniProt P01350); details: competition with ^59Fe^3+ ions (Baldwin 2004); cited from earlier work
T1 sequence (P01350 27-101 limits assumed): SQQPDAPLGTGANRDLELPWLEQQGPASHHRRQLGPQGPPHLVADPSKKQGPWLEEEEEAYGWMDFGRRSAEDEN

[2] = biological target: T2, Ggly (Homo sapiens, UniProt P01350); details: 20 equivalents; WO 2004/089976; cited from earlier work
[3] = biological target: T2, Ggly; details: Ggly binds two Bi^3+ ions at pH 4; read-out: affinity; cited from earlier work
[4] = biological target: T2, Ggly; details: cited from earlier work; for quenching of Ggly fluorescence: WO 2004/089976; for binding to Ggly: detected by measurement of Ggly fluorescence (Baldwin 2001)
[5] = biological target: T3, Gamide (Homo sapiens, UniProt P01350); assay: Absorption spectroscopy (280 nm) of metal ion binding to Gamide, fitted with BioEqs; details: for A280 (%) for first site / A280 (%) for second site / A280 (%) for mixed FeGastrinM complex: percentage absorbance at 280 nm, fitted
T3 construct: amidated gastrin34 and amidated gastrin17 (Gamide); purchased Auspep (Clayton, Australia)
Procedure: (§1) Gamide and Ggly (88 and 93% pure, respectively) were purchased from Auspep (Clayton, Australia). The impurities consisted of water and salts. Solutions of metal ions (Aldrich, St. Louis, Mo.) were prepared in 10 mM HCl, and their concentrations determined by inductively coupled plasma-atomic emission spectroscopy at the National Measurement Institute (Pymble, Australia).
(§2) The 280 nm absorption of peptides (10 μM in 10 mM sodium acetate, pH 4.0, containing 100 mM NaCl and 0.005% Tween 20) in the presence of increasing concentrations of metal ions was measured against a buffer blank, in 1 ml quartz cuvettes thermostatted at 298 K, with a Cary 5 spectrophotometer (Varian, Mulgrave, Australia).
(§3) Data (expressed as means±S.E.M.) were fitted to one-site or two-site ordered models (as per FIG. 1) with the program BioEqs.
(§4) New absorption data sets were obtained, and fitted with the program Bioeqs as described in the Materials and Methods section. […] In the 2 site competitive model gastrin binds two ferric ions with dissociation constants Kd1Fe and Kd2Fe, and two metal ions M to the same two sites with dissociation constants Kd1M and Kd2M. The dissociation constant Kd3M describes the formation of the mixed FeGastrinM complex.

[6] = biological target: T2, Ggly; assay: Absorption spectroscopy (280 nm) of metal ion binding to Ggly, fitted with BioEqs; details: for A280 (%) for first site / A280 (%) for second site / A280 (%) for mixed FeGastrinM complex: Ggly, percentage absorbance at 280 nm, fitted
Procedure: as §1, §2, §3, §4

[7] = tested on: gastrins; assay: Screen of binding affinities of a range of metals to gastrins
[8] = tested on: colon; details: infusion into gastrin-deficient mice (Wang 1996); cited from earlier work
[9] = Gamide 10 μM, pH 4.0, 298 K, 2 site model (Fe, Ga) or 2 site competitive model vs Fe^3+ (In, Ru), read-out: Kd1 (first iron binding site)
[10] = Gamide 10 μM, pH 4.0, 298 K, 2 site or 2 site competitive model, read-out: Kd2 (second site)
[11] = read-out: Kd2 (second site), Ggly 10 μM, pH 4.0, 298 K, 2 site or 2 site competitive model
[12] = Gamide, 2 site competitive model, read-out: Kd3 (formation of mixed FeGastrinM complex)

Compound: [Al+3] [Al(III)]
- binding to progastrin [1]: does not bind
- shift in Ggly NMR signals [2]: nor did 20 equivalents of Al^3+ cause any significant shift in Ggly NMR signals

Compound: [Bi+3] [Bi^3+]
- Kd [3]: 5800 nM

Compound: [Ca+2] [Ca(II)]
- binding to progastrin [1]: does not bind

Compound: [Co+2] [Co(II)]
- quenching of Ggly fluorescence [4]: not quench fluorescence
- binding to Ggly [4]: does not bind
- binding to progastrin [1]: does not bind

Compound: [Cr+3] [Cr(III)]
- quenching of Ggly fluorescence [4]: not quench fluorescence
- binding to Ggly [4]: does not bind
- binding to progastrin [1]: does not bind

Compound: [Cu+2] [Cu(II)]
- quenching of Ggly fluorescence [4]: not quench fluorescence
- binding to Ggly [4]: does not bind
- binding to progastrin [1]: does not bind

Compound: [Eu+3] [Eu(III)]
- binding to progastrin [1]: does not bind

Compound: [Fe+2] [Fe(II)]
- binding to progastrin [1]: does not bind

Compound: [Fe+3] [Fe^3+]
- Kd [5, 9]: 0.3 nM
- Kd [5, 10]: 0.085 nM
- A280 (%) for first site ([5]; Gamide): 100.0%
- A280 (%) for second site ([5]; Gamide): 313.4%
- A280 (%) for first site [6]: 100.0%
- A280 (%) for second site [6]: 365.9%
- Kd ([6]; Kd1 (first iron binding site), Ggly 10 μM, pH 4.0, 298 K, 2 site model (Fe, Ga) or 2 site competitive model vs Fe^3+ (In, Ru)): 5.7 nM
- Kd ([6]; Kd2 (second site), Ggly 10 μM, pH 4.0, 298 K, 2 site or 2 site competitive model): 7 nM

Compound: [Ga+3] [Ga^3+]
- Kd [5, 9]: 330 nM
- Kd [5, 10]: 1100 nM
- A280 (%) for first site ([5]; Gamide): 100.0%
- A280 (%) for second site ([5]; Gamide): 335.8%
- Kd ([5]; Gastrin/Gamide, 2 site model, read-out: dissociation constant (Kd), first site): 330 nM
- Kd ([5]; Gastrin/Gamide, 2 site model, read-out: dissociation constant (Kd), second site): 1100 nM
- Kd [6]: 17 nM
- A280 (%) for first site [6]: 100.0%
- A280 (%) for second site [6]: 340.2%
- Kd [6, 11]: 2300 nM

Compound: [In+3] [In^3+]
- Kd [5, 10]: 170 nM
- Kd [5, 12]: 4 nM
- A280 (%) for first site ([5]; Gamide): 100.0%
- A280 (%) for mixed FeGastrinM complex ([5]; Gamide): 217.7%
- A280 (%) for second site ([5]; Gamide): 74.1%
- Kd [6]: 96 nM
- A280 (%) for first site [6]: 100.0%
- A280 (%) for mixed FeGastrinM complex [6]: 255.6%
- A280 (%) for second site [6]: 72.8%
- Kd [6, 11]: 14000 nM

Compound: [Mn+2] [Mn(II)]
- quenching of Ggly fluorescence [4]: not quench fluorescence
- binding to Ggly [4]: does not bind
- binding to progastrin [1]: does not bind

Compound: [Ru+3] [Ru^3+]
- Kd [5, 10]: 12000 nM
- Kd [5, 12]: 17 nM
- A280 (%) for first site ([5]; Gamide): 100.0%
- A280 (%) for mixed FeGastrinM complex ([5]; Gamide): 264.9%
- A280 (%) for second site ([5]; Gamide): 178.6%
- Kd [6]: 1200 nM
- A280 (%) for first site [6]: 100.0%
- A280 (%) for mixed FeGastrinM complex [6]: 304.1%
- A280 (%) for second site [6]: 1714.8%
- Kd [6, 11]: 360000 nM

Compound: [Zn+2] [Zn(II)]
- binding to progastrin [1]: does not bind

Compound: [Sb] [antimony]
- high affinity binding to gastrins [7]: did not show high affinity binding

Compound: [AsH3] [arsenic]
- high affinity binding to gastrins [7]: did not show high affinity binding

Compound: ZGPWLEEEEEAYGWMDFamide [gastrin/Gamide]
- increase of colonic proliferative index [8]: no effect
